In one test the target is T1, G269S/1278insTATC HexA (Homo sapiens, UniProt P06865, G269S).
T1 construct: host or cells: Tay-Sachs patient fibroblasts, lysed for the MUGS assay
T1 sequence (P06865 89-529 G269S): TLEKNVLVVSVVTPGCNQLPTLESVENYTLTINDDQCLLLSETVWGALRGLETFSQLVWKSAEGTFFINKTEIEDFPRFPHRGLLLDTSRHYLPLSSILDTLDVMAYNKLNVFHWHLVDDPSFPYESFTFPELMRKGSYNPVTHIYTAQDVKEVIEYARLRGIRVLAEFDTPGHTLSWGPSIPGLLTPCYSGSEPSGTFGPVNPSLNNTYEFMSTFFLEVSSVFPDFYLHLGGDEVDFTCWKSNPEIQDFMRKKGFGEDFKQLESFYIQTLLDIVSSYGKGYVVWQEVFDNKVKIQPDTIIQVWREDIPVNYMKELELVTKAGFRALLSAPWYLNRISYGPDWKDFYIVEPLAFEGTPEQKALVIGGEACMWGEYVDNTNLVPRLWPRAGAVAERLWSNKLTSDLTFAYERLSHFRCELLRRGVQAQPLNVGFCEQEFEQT
T1 sequence (P07686 122-556 partner): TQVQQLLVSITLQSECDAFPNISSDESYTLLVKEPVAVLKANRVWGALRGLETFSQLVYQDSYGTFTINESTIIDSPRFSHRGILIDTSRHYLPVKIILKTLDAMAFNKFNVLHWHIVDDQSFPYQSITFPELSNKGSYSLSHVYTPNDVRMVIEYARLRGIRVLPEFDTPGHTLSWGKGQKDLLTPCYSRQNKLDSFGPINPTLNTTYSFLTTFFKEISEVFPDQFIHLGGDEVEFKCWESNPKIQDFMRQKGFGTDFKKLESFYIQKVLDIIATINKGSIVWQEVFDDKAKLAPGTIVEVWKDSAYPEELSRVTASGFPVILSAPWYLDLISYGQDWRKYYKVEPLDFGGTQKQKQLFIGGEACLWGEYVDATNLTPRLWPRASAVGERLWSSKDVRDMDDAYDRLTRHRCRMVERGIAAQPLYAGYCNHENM
Briefly: Hex α-site cell assay in Tay-Sachs fibroblast cell line. The format is cell-based. As to conditions: ADNJ 20 to 50 μM, exposed once without media changes, after 192 h. The source says: We therefore evaluated the ability of these proteostasis regulators to restore partial function to HexA, a heterodimeric enzyme composed of α- and β-subunits that degrades GM2 gangliosides in the lysosome. Mutations in the β-hexosaminidase A α-subunit can cause extensive ERAD of HexA, leading to Tay-Sachs disease (TSD). Jeyakumar et al., Neuropathol Appl Neurobiol 28: 343-357, 2002. HexA activity was studied in a compound heterozygous fibroblast cell line (GM13204), harboring one of the most prevalent β-hexosaminidase A α-subunit mutations (G269S) found in Tay-Sachs patients and a second mutated HexA allele (1278insTATC) with a stop codon. […] Tropak et al., J Biol Chem 279: 13478-13487, 2004.
The Hex α-site cell assay has been previously described. Tropak et al., J Biol Chem 279: 13478-13487, 2004. Cells were plated as described for the GC assay. After 1 to 8 days of incubation the medium was removed, cells were washed with PBS, and lysed with 60 μl of 10 mM citrate/phosphate buffer pH 4.2 (CP buffer) containing 0.5% human serum albumin and 0.5% Triton X-100. 30 μl of aliquots were transferred to a 96-well plate and Hex α-site activity was measured by adding 30 μl of 3.2 mM MUGS in CP buffer to each well and incubating the plates at 37° C. for 1 to 7 hour. The reaction was stopped by adding 200 μl of 0.1 M 2-amino-2-methyl-1-propanol pH 10.5 and the fluorescence was measured (excitation 365 nm, emission 450 nm).

The target of the next test is T2, L444P GC (Homo sapiens, UniProt P04062, L483P).
T2 construct: a L444P GC Gaucher fibroblast cell line (GM08760); host or cells: Gaucher patient-derived skin fibroblasts
T2 sequence (P04062 40-536 L483P): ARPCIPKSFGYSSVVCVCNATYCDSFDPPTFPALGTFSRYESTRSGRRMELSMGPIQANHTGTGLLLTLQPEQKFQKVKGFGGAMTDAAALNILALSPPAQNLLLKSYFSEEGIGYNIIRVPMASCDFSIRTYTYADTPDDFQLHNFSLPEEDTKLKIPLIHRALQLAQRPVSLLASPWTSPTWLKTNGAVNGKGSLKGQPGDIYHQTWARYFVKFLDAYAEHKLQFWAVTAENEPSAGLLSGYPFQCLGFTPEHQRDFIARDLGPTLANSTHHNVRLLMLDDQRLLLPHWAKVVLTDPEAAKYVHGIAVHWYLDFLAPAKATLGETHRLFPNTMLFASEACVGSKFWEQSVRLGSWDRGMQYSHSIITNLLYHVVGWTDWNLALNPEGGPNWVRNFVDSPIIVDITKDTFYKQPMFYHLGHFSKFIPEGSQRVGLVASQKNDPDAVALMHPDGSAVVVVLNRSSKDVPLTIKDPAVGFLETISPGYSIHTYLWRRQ
Briefly: GC activity assay in L444P GC Gaucher patient-derived fibroblasts. The format is cell-based. As to conditions: for L444P GC activity, maximum fold increase: 30 μM.

A further test relates to Ca^2+ channel. The note with it: cited from earlier work; for IC50: previously reported, Li et al., J Med Chem 35: 3246-3253, 1992, read-out: Ca^2+ channel blocker IC50.
The mark [1] stands for this setting: 7 days, intact cell GC activity assay (FIG. 19D).

`CC(=O)N[C@H]1C(O)N[C@H](CO)[C@H](O)[C@@H]1O` (stereo partly drawn) [ADNJ, 2-Acetamido-2-deoxynojirimycin]: on G269S/1278insTATC HexA, the “Hex α-site activity as % of cellular WT Hex α-site activity” value came out at 25% and the “cellular Hex α-site activity, fold increase” value was found to be 2.5 fold.

For `CN(C)CCN1C(=O)[C@H](O)[C@H](c2ccc(O)cc2)Sc2ccccc21` [Compound 3, (2S,3S)-5-[2-(Dimethylamino)ethyl]-2,3-dihydro-3-hydroxy-2-(4-hydroxyphenyl)-1,5-benzothiazepin-4(5H)-one], the “L444P GC activity, maximum fold increase” value on L444P GC (setting [1]) is 1.3 fold. The IC50 with Ca^2+ channel was 45.5 µM.

Consider `CNCCN1C(=O)[C@H](O)[C@H](c2ccc(O)cc2)Sc2ccccc21` [Compound 4, (2S,3S)-2,3-Dihydro-3-hydroxy-2-(4-hydroxyphenyl)-5-[2-(methylamino)ethyl]-1,5-benzothiazepin-4(5H)-one], for which, on L444P GC (setting [1]), the “L444P GC activity, maximum fold increase” value was found to be 1.2 fold. The concentration for half-maximal inhibition (IC50) with Ca^2+ channel was 127 µM.

With `COc1ccc([C@@H]2Sc3ccccc3NC(=O)[C@@H]2O)cc1` [Compound 6], the “effect on L444P GC activity” value on L444P GC (0.3 to 100 μM, 7 days, intact cell GC activity assay (FIG. 19D)) was “do not increase L444P GC activity”. Also, the “Ca^2+ channel antagonist activity” value in the test with Ca^2+ channel (according to reported SAR studies, lack basic amino nitrogen pharmacophore) is given as “not Ca^2+ channel antagonists”.

Take `COc1ccc(S(=O)(=O)N(CCO)c2ccccc2CN(C)C/C=C/c2ccc(Cl)cc2)cc1` [KN93]: the “effect on L444P GC activity” value on L444P GC (IP3R inhibitors (FIG. 33)) is “None of the compounds enhanced L444P GC activity”.

For `C1CCCC2CCCN3CCC(CCCCCCC4CCCN5CCC(CC1)OC45)OC23` (stereo not drawn) [XeC], the “effect on L444P GC activity” value at L444P GC (IP3R inhibitors (FIG. 33)) was “None of the compounds enhanced L444P GC activity”.

Consider `CCN(CC)CCCC(C)Nc1ccnc2cc(Cl)ccc12` (stereo not drawn) [chloroquinine], for which the “effect on L444P GC activity” value at L444P GC (IP3R inhibitors (FIG. 33)) is “None of the compounds enhanced L444P GC activity”.

In the case of `CC(=O)N[C@@H](CSC(=O)[C@]1([C@@H](O)C(C)C)NC(=O)[C@H](C)[C@@H]1O)C(=O)O` [lactacystin], the “GC proteostasis regulator function” value on L444P GC (L444P GC cells) is given as “not a GC proteostasis regulator”.

On to `C=C[C@H]1C[N@@]2CC[C@H]1C[C@H]2[C@H](O)c1ccnc2ccc(OC)cc12` [quinine], for which the “effect on L444P GC activity” value on L444P GC (IP3R inhibitors (FIG. 33)) is on record as “None of the compounds enhanced L444P GC activity”.

With `N.N.N.N.N.N.N.N.N.N.N.N.N.N.[Cl-].[Cl-].[Cl-].[Cl-].[Cl-].[Cl-].[O-2].[O-2].[Ru+3].[Ru+3].[Ru+4]` [ruthenium red], the “effect on L444P GC activity, intact cell GC enzyme assay” value at L444P GC (thermosensitive TRP channel modulators, 5-day incubation) is given as “notably increased”.

As for `C/C=C(/C)C(=O)O[C@H]1C(C)=C2[C@H]([C@@H]1OC(=O)CCCCCCC)[C@@](C)(OC(C)=O)C[C@H](OC(=O)CCC)[C@@]1(O)[C@H]2OC(=O)[C@@]1(C)O` [thapsigargin], the “effect on L444P GC folding, trafficking and lysosomal activity” value at L444P GC (thapsigargin (FIG. 25)) is “does not enhance”. In addition, the “concentration above which L444P GC activity is decreased significantly” value at L444P GC (thapsigargin alone, 7-day incubation) is given as above 1 nM. The “effect on GC activity in L444P GC cells” value at L444P GC (varying concentrations co-applied with 10 μM diltiazem, 7 days) was “dose-dependent decrease of GC activity”.

On to `C[CH2][Hg][S]c1ccccc1C(=O)[O-].[Na+]` [thimerosal], for which the “effect on L444P GC activity” value on L444P GC (IP3R inhibitors (FIG. 33)) was “None of the compounds enhanced L444P GC activity”.

The values above are taken from US20090203605A1, “Methods For Treating A Condition Characterized By Dysfunction In Protein Homeostasis” (THE SCRIPPS RESEARCH INSTITUTE, priority 2008, published 2009).
